# Reference: US20160030530A1, “SULFORAPHANE/SULFORAPHANE PRECURSOR AND PHYTOSTEROL/PHYTOSTANOL COMPOSITIONS” (NUTRAMAX LABORATORIES, INC., priority 2013, published 2016)
# Legend:
# [1] = tested on: broccoli sprout-derived myrosinase; experiment: Consumption of glucoraphanin as a function of the ascorbic acid concentration (hydrolysis by myrosinase); type: biochemical
# Method: About 250 mg of broccoli seed extract containing about 12% (w/w) glucoraphanin were subjected to hydrolysis by a fixed concentration of broccoli sprout-derived myrosinase in the presence of variable concentration of ascorbic acid, ranging from 0 to 600 μmoles/Liter. The reaction mixtures were thermostated at 38° C.; aliquots were withdrawn every 15 minutes for 60 minutes, and concentration of glucoraphanin determined chromatographically. The rate of glucoraphanin consumption was interpreted as the rate its conversion to sulforaphane. Graphical representation of glucoraphanin content reduction as a function of increasing ascorbic acid concentration results in a series of linear plots; the slopes of the linear regression lines reflect the rate of glucoraphanin consumption, in μmoles/minute. It is apparent that in the presence of 600 μmoles/Liter concentration of ascorbic acid, the reaction rate increased 13-fold relative to that which proceeded in the absence of modulatory effects of ascorbic acid.
# myrosinase [2] = experiment: Conversion of glucoraphanin to sulforaphane in the presence of Simulated Intestinal Fluid; type: biochemical, broccoli; conditions: 0.25 to 1.00 mmol/Liter ascorbic acid, 38° C., 2 hours
# Method: Simulated Intestinal Fluid (SIF) powder, a commercially supplied concentrate closely approximating the human intestinal content in terms of composition, pH and ionic strength, was used. The experiment utilized a USP Dissolution Apparatus 2 (paddles), where into six dissolution vessels 500 mL of Simulated Intestinal Fluid was dispensed, along with 150 mg of freeze-dried broccoli sprout powder as a source of myrosinase. In vessels 1-4, the concentration of ascorbic acid was varied from 0.25 to 1.00 mmol/Liter; in vessel 5, in addition to 1 mmol/Liter ascorbic acid, 3.125 g of pancreatin (8×USP) was suspended; in vessel 6, in addition to 1 mmol/Liter ascorbic acid, and 3.125 g of pancreatin (8×USP), a doubled amount of freeze-dried broccoli sprout powder (300 mg) was added. After vessels were brought to 38° C., 250 mg of glucoraphanin-rich (12%, w/w) broccoli seed extract was added to each, and the resulting suspensions were stirred at 75 RPM for 2 hours. Aliquots were withdrawn every 15 minutes, and assayed for sulforaphane.
# myrosinase [3] = experiment: Equimolar conversion of glucoraphanin to sulforaphane, role of ascorbic acid in modulating myrosinase activity; type: biochemical, broccoli; conditions: control sample, without ascorbic acid
# Method: A two-part experiment was conducted to further elucidate the role of ascorbic acid in modulating myrosinase activity. […] A control sample contained no ascorbic acid, and the enzymatic conversion proceeded unassisted by a co-factor. PART 1. […] PART 2. While keeping the amount of broccoli seed extract fixed at 250 mg, the concentration of ascorbic acid was varied from 0.4 mmol/Liter to 3.8 mmol/Liter. The table below presents glucoraphanin and sulforaphane expressed in μmoles.
# chondrocytes = conditions: IL-1β-induced NF-κB pathway; cited from earlier work
smiles,measurement,setting,value
"O=C1O[C@H]([C@@H](O)CO)C(O)=C1O [Ascorbic Acid, ascorbic acid]",Slope (rate of glucoraphanin consumption),"[1]; 0 μM ascorbic acid, linear regression 0-60 min",-0.09293 µmol/min
same,Glucoraphanin (GR) content,"[1]; 0 μM ascorbic acid, time 15 min, 38° C.",92.24 µmol
same,Glucoraphanin (GR) content,"[1]; 0 μM ascorbic acid, time 30 min, 38° C.",90.71 µmol
same,Glucoraphanin (GR) content,"[1]; 0 μM ascorbic acid, time 45 min, 38° C.",89.44 µmol
same,Glucoraphanin (GR) content,"[1]; 0 μM ascorbic acid, time 60 min, 38° C.",87.79 µmol
same,Increase of reaction rate relative to absence of ascorbic acid,"[1]; 600 μmoles/Liter ascorbic acid, 38° C.",13 fold
same,Yield of sulforaphane versus ascorbic acid concentration,myrosinase [2],direct correlation between larger yield of sulforaphane and higher concentrations of ascorbic acid
"C[S+]([O-])CCCC/C(=N\OS(=O)(=O)O)S[C@@H]1O[C@H](CO)[C@@H](O)[C@H](O)[C@H]1O (stereo partly drawn) [glucoraphanin, 4-methylsulfinylbutyl glucosinolate]",Conversion of glucoraphanin to sulforaphane (amount consumed versus amount produced),myrosinase [3],equimolar conversion of glucoraphanin to sulforaphane
"CC[C@H](/C=C/[C@@H](C)[C@H]1CC[C@H]2[C@@H]3CC=C4C[C@@H](O)CC[C@]4(C)[C@H]3CC[C@]12C)C(C)C [stigmasterol, 3β-stigmasta-5,22,-dien-3-ol]","Pro-inflammatory and matrix degradation mediators (MMP-3, MMP-13, ADAMTS-4, PGE2)",chondrocytes,inhibits several pro-inflammatory and matrix degradation mediators
